Like-named read-outs stand apart in the source and are kept apart here.
How the values were obtained:
[1] = system: NUGC3 (P53 Y220C); assay: Cell viability assay (CellTiter-Glo, 6 days), NUGC3; format: cell-based; conditions: cell viability, 6 days, CellTiter-Glo, read-out: NUGC3 (P53 Y220C) IC50
Procedure: (§1) Cells were collected and counted. A desired number of cells was seeded into 96-well microplate and cultured in 37° C. cell incubator overnight. Compounds dissolved in cell culture medium were added into cell plate and cultured for 6 days. After balancing CellTiter-Glo reagent and cells at room temperature for 30 min, equal volume of CellTiter-Glo reagents was added to assay plate and shaken for 2 min for cell lysis. The cells were balanced at room temperature for 10 minutes and Luminescence signal was read using Envision. The percent of cell viability for compounds treated wells were normalized between High control and low control. Wells containing cell culture medium and same percentage DMSO sewved as Low control. Wells containing cells and same percentage DMSO sewved as High control. Cell viability (%)=(Luminescence readoutCompound treated−Luminescence readoutLow control)/(Luminescence readoutHigh control−Luminescence readoutLow control)*100%. Then the data were analyzed either by fitting a 4-parameter logistic model or by Excel to calculate IC50 values. And the IC50 was the concentration at 50% Cell viability on the curve.

[2] = system: NUGC4 (P53 WT); assay: Cell viability assay (CellTiter-Glo, 6 days), NUGC4; format: cell-based; conditions: cell viability, 6 days, CellTiter-Glo, read-out: NUGC4 (P53 WT) IC50
Procedure: as §1

[3] = target: T1, His-p53 Y220C (94-294) protein (Homo sapiens, UniProt P04637, Y220C); assay: In vitro DNA binding assay (HTRF); format: biochemical; conditions: % activation normalized to 2 μM Ref-1a high control
T1 construct: His-p53 Y220C (94-294) protein

[4] = system: NUGC-3_P53_Luc single clonal cell line (p53 Y220C); assay: Reporter gene assay (p53 RE luciferase); format: cell-based; conditions: luciferase reporter, 6 hours, normalized to Ref-1a (10 μM) high control, read-out: p53(Y220C)_NUGC-3 EC50
Procedure: NUGC-3_P53_Luc single clonal cell line was established using pGL4.38[luc2P/p53 RE/Hygro] Vector (E365A, promega). NUGC-3_P53-Luc single clonal cells were cultured in 37° C. cell incubator before use. NUGC-3-P53-Luc cells were collected and washed twice with PBS to remove phenol red and then resuspended in medium to a proper concentration. Tested compound dilutions were transferred into 384 well assay plates (PerkinElmer). A desired number of cells was seeded into the assay plate and cultured for 6 hours at 37° C. cell incubator. Britelite plus Luciferase Assay Reagent were added into each well and the luminescence value was recorded on Envision. The percent of activity value of compounds treated wells was normalized between high control and low control. Wells containing cells and Ref-1a (10 μM) sewved as high control, and wells containing cells and same percentage of DMSO sewved as low control. Activity value (%)=(Luminescence readoutCompound treated−Luminescence readoutLow control)/(Luminescence readoutHigh control−Luminescence readoutLow control)*100%. Then the data were analyzed either by fitting a 4-parameter logistic model or by Excel to calculate EC50 values and the EC50 was the concentration at 50% Activity on the curve.

SMILES | IC50 ([1]; Homo sapiens, NUGC-3, 144 h) [nM] | IC50 ([2]; Homo sapiens, NUGC-4, 144 h) [nM] | EC50 [3] [nM] | EC50 ([4]; Homo sapiens, NUGC-3) [nM] | IC50 [1] [nM] | IC50 [2] [nM] | EC50 [4] [nM] | EC50 ([4]; Homo sapiens, NUGC-3, 6 h) [nM]
COc1cc(P(C)(C)=O)ccc1NCC#Cc1sc2c(NC3CCN(C4CCOCC4)CC3)cccc2c1CC(F)(F)F [Example 154, (3-methoxy-4-((3-(7-((1-(tetrahydro-2H-pyran-4-yl)piperidin-4-yl)amino)-3-(2,2,2-trifluoroethyl)benzo[b]thiophen-2-yl)prop-2-yn-1-yl)amino)phenyl)dimethylphosphine oxide] | 1890 | 4190 | 67 | 410 |  |  |  | 
COCC(O)CN1CC[C@@H](Nc2cccc3c(CC(F)(F)F)c(C#CCNc4ccc(S(C)(=O)=O)cc4OC)sc23)[C@@H](F)C1 (mixture of isomers) [Example 6, 1-((Z)-3-fluoro-4-((2-(3-((2-methoxy-4-(methylsulfonyl)phenyl)amino)prop-1-yn-1-yl)-3-(2,2,2-trifluoroethyl)benzo[b]thiophen-7-yl)amino)piperidin-1-yl)-3-methoxypropan-2-ol] | 1190 | 6830 | 130 | 360 |  |  |  | 
CN1CCC(Nc2cccc3c(CC(F)(F)F)c(C#CCNc4ccc(P(C)(C)=O)cc4OC(F)(F)F)sc23)C(F)C1 (centres unmarked) [Example 65, (4-((3-(7-(((Z)-3-fluoro-1-methylpiperidin-4-yl)amino)-3-(2,2,2-trifluoroethyl)benzo[b]thiophen-2-yl)prop-2-yn-1-yl)amino)-3-(trifluoromethoxy)phenyl)dimethylphosphine oxide] |  |  | 46 |  | 1560 | 10000 | 120 | 
COc1cc(P(C)(C)=O)ccc1NCC#Cc1sc2c(N[C@H]3CCN(C)C[C@H]3F)cccc2c1CC(F)(F)F [Example 114, (4-((3-(7-(((3R,4S)-3-fluoro-1-methylpiperidin-4-yl)amino)-3-(2,2,2-trifluoroethyl)benzo[b]thiophen-2-yl)prop-2-yn-1-yl)amino)-3-methoxyphenyl)dimethylphosphine oxide] | 1240 | 10500 | 57 |  |  |  |  | 120
COc1cc(P(C)(C)=O)ccc1NCC#Cc1sc2c(N[C@H]3CCN(C)C[C@H]3C)cccc2c1CC(F)(F)F [Example 125, (4-((3-(7-(((3R,4S)-1,3-dimethylpiperidin-4-yl)amino)-3-(2,2,2-trifluoroethyl)benzo[b]thiophen-2-yl)prop-2-yn-1-yl)amino)-3-methoxyphenyl)dimethylphosphine oxide] | 1270 | 2570 | 54 |  |  |  |  | 180
COc1cc(P2(=O)CCN(C(=O)C3CC3)CC2)ccc1NCC#Cc1sc2c(N[C@@H]3CCN(C)C[C@@H]3F)cccc2c1CC(F)(F)F [Example 149, cyclopropyl(4-(4-((3-(7-(((3S,4R)-3-fluoro-1-methylpiperidin-4-yl)amino)-3-(2,2,2-trifluoroethyl)benzo[b]thiophen-2-yl)prop-2-yn-1-yl)amino)-3-methoxyphenyl)-4-oxido-1,4-azaphosphinan-1-yl)methanone] | 370 | 3700 | 46 | 90 |  |  |  | 
COc1cc([S@@](C)(=N)=O)ccc1NCC#Cc1sc2c(N[C@@H]3CCN(C)C[C@@H]3F)cccc2c1CC(F)(F)F [Example 226, (S)-(4-((3-(7-(((3S,4R)-3-fluoro-1-methylpiperidin-4-yl)amino)-3-(2,2,2-trifluoroethyl)benzo[b]thiophen-2-yl)prop-2-yn-1-yl)amino)-3-methoxyphenyl)(imino)(methyl)-16-sulfanone] |  |  | 39 |  | 320 | 19400 | 50 | 
CCN1CC[C@@H](Nc2cccc3c(CC(F)(F)F)c(C#CCNc4ccc(P(C)(C)=O)cc4OC)sc23)[C@@H](F)C1 [Example 135, (4-((3-(7-(((3S,4R)-1-ethyl-3-fluoropiperidin-4-yl)amino)-3-(2,2,2-trifluoroethyl)benzo[b]thiophen-2-yl)prop-2-yn-1-yl)amino)-3-methoxyphenyl)dimethylphosphine oxide] | 1160 | 3620 | 26 |  |  |  |  | 40
